Columns and labels:
Assay in all cases: combination Emax (second highest fraction inhibited in the dose matrix, 72 h); higher = more inhibition; extreme values may be limits of the assay
[1] = tested on: 23132-87 (Gastric Carcinoma)
Outline: (§1)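 Cell lines grown in DMEM/F12 or RPMI with 10% FBS were plated in 1536-well plates and held 24 hours at 37°C, 5% CO2 before 72 hours of exposure to two-drug dose matrices, with DMSO typically at 0.2%. CellTiter-Glo 2.0 luminescence gave viability, which was converted to inhibition. Vehicle wells were set to 0 and blank wells to 1. Combination Emax is the second-highest inhibition in the matrix, and Bliss excess is the observed combination effect minus the expected EA + EB − EA·EB, where EA and EB are the single-agent effects.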

[2] = tested on: CAL-120 (Breast Carcinoma)
Outline: as §1

[3] = tested on: FADU (Head and Neck Carcinoma)
Outline: as §1

[4] = tested on: GP5d (Colorectal Carcinoma)
Outline: as §1

[5] = tested on: HEC-1 (Endometrial Carcinoma)
Outline: as §1

[6] = tested on: HSC-39 (Gastric Carcinoma)
Outline: as §1

IST-MES1 (Mesothelioma) = tested on: IST-MES1 (Mesothelioma)
Outline: as §1

[7] = tested on: KE-37 (T-Lymphoblastic Leukemia)
Outline: as §1

[8] = tested on: LK-2 (Squamous Cell Lung Carcinoma)
Outline: as §1

[9] = tested on: MFE-280 (Endometrial Carcinoma)
Outline: as §1

[10] = tested on: MKN45 (Gastric Carcinoma)
Outline: as §1

[11] = tested on: NCI-H2342 (Lung Adenocarcinoma)
Outline: as §1

[12] = tested on: PC-3_[JPC-3] (Lung Adenocarcinoma)
Outline: as §1

[13] = tested on: PSN1 (Pancreatic Carcinoma)
Outline: as §1

[14] = tested on: RCM-1 (Colorectal Carcinoma)
Outline: as §1

[15] = tested on: REH (B-Lymphoblastic Leukemia)
Outline: as §1

[16] = tested on: RERF-GC-1B (Gastric Carcinoma)
Outline: as §1

[17] = tested on: RERF-LC-Sq1 (Squamous Cell Lung Carcinoma)
Outline: as §1

SF268 (Low Grade Glioma) = tested on: SF268 (Low Grade Glioma)
Outline: as §1

[18] = tested on: VAL (B-Cell Non-Hodgkin's Lymphoma)
Outline: as §1

Row | Structure (SMILES) | combination Emax [1] | combination Emax [2] | combination Emax [3] | combination Emax [4] | combination Emax [5] | combination Emax [6] | combination Emax (IST-MES1 (Mesothelioma)) | combination Emax [7] | combination Emax [8] | combination Emax [9] | combination Emax [10] | combination Emax [11] | combination Emax [12] | combination Emax [13] | combination Emax [14] | combination Emax [15] | combination Emax [16] | combination Emax [17] | combination Emax (SF268 (Low Grade Glioma)) | combination Emax [18]
1 | CN(C)CCCOc1ccc(-c2ccc3ncc4c(c3c2)n(C2CCOCC2)c(=O)n4C)cn1 [AZD0156] + O=C(c1cc(Cc2n[nH]c(=O)c3ccccc23)ccc1F)N1CCN(C(=O)C2CC2)CC1 [Olaparib] (first compound max 3 µM, partner max 3 µM) | 0.644 | 0.29 | 0.258 | 0.297 | 0.139 | 0.413 | 0.212 | 0.415 | 0.372 | 0.312 | 0.356 | 0.0678 | 0.181 | 0.228 | 0.287 | 0.457 | 0.317 | 0.418 | 0.21 | 0.542
2 | CN(CCO)CC[C@H](CSc1ccccc1)Nc1ccc(S(=O)(=O)NC(=O)c2ccc(N3CCC([C@@H](O)c4ccccc4-c4ccc(Cl)cc4)CC3)cc2)cc1S(=O)(=O)C(F)(F)F [AZD4320] + Cc1cc2ncnn2cc1Nc1ncc2c(n1)n(C1CCOCC1)c(=O)n2C [AZD7648] (first compound max 1 µM, 7x7, partner max 10 µM) | 0.2 | 0.748 | 0.12 | 0.295 | 0.337 | 0.367 | 0.113 | 1 | 0.746 | 0.774 | 0.352 | 0.27 | 0.243 | 0.315 | 0.351 | 1 | 0.344 | 0.18 | 0.164 | 1
3 | CC1(C)CCC(CN2CCN(c3ccc(C(=O)NS(=O)(=O)c4ccc(NCC5CCOCC5)c([N+](=O)[O-])c4)c(Oc4cnc5[nH]ccc5c4)c3)CC2)=C(c2ccc(Cl)cc2)C1 [Venetoclax] + Cn1cnc2c(F)c(Nc3ccc(Br)cc3Cl)c(C(=O)NOCCO)cc21 [Selumetinib] (first compound max 1 µM, 7x7, partner max 3 µM) | 0.0843 | 0.106 | 0.364 | 0.71 | 0.0851 | 0.936 | 0.161 | 0.352 | 0.172 | 0.18 | 0.65 | 0.193 | 0.173 | 0.622 | 0.571 | 0.897 | 0.27 | 0.312 | 0.157 | 1
4 | CCN(CCO)CCCOc1ccc2c(Nc3cc(CC(=O)Nc4cccc(F)c4)[nH]n3)ncnc2c1 [AZD2811] + C[C@@H]1COCCN1C2=NC(=NC(=C2)C3(CC3)[S@](=N)(=O)C)C4=C5C=CNC5=NC=C4 [AZD6738] (first compound max 1 µM, 7x7, partner max 10 µM) | 0.811 | 0.396 | 0.654 | 0.845 | 0.212 | 1 | 0.345 | 1 | 0.698 | 0.436 | 0.732 | 0.213 | 0.304 | 0.397 | 0.828 | 0.787 | 0.439 | 0.791 | 0.381 | 0.877
5 | Cc1cc2ncnn2cc1Nc1ncc2c(n1)n(C1CCOCC1)c(=O)n2C [AZD7648] + CCN(CCO)CCCOc1ccc2c(Nc3cc(CC(=O)Nc4cccc(F)c4)[nH]n3)ncnc2c1 [AZD2811] (first compound max 10 µM, 7x7, partner max 1 µM) | 0 | 0.334 | 0.263 | 0.478 | 0 | 0.939 | 0.31 | 1 | 0.742 | 0.377 | 0.446 | 0.324 | 0.319 | 0.397 | 0.316 | 0.51 | 0.281 | 0.261 | 0.19 | 0.798
6 | CCc1c2c(nc3ccc(O)cc13)-c1cc3c(c(=O)n1C2)COC(=O)[C@]3(O)CC [SN-38] + CN(C)CCCOc1ccc(-c2ccc3ncc4c(c3c2)n(C2CCOCC2)c(=O)n4C)cn1 [AZD0156] (first compound max 0.3 µM, 7x7, partner max 1 µM) | 0.845 | 0.381 | 1 | 0.655 | 0.398 | 0.964 | 0.875 | 1 | 0.584 | 0.611 | 0.815 | 0.225 | 0.732 | 0.705 | 0.86 | 1 | 0.788 | 0.743 | 0.902 | 0.944
